Patent US20240158370A1, “CK1 alpha AND DUAL CK1 alpha / GSPT1 DEGRADING COMPOUNDS” (Innovo Therapeutics, Inc., priority 2022, published 2024)

How the values were obtained:
[1] = target: GSPT1 (Homo sapiens, UniProt P15170+Q96SW2); assay: HiBiT degradation assay, GSPT1, Procedure A; assay type: cell-based; parameters: HiBit-GSPT1 KI HEK293(LgBit) Cells; host or cells: HEK293(LgBit) knock-in cells; conditions: six hours incubation
Procedure, shortened: (§1)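 Luminescence from HiBiT lytic detection reports remaining tagged protein after cells sit six hours at 37° C with compound across ten concentrations (10 μM down to 0.005 μM, 0.1% DMSO). A 4-parameter curve fit gives DC50 and Ymin.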

[2] = target: T1, CK1α (Homo sapiens, UniProt P48729+Q96SW2); assay: HiBiT degradation assay, CK1α, Procedure A; assay type: cell-based; conditions: six hours incubation
T1 construct: CSNK1A1-HiBit KI HEK293(LgBit) Cells; host or cells: HEK293(LgBit) knock-in cells
Procedure, shortened: as §1

T1 sequence (P48729 whole entry): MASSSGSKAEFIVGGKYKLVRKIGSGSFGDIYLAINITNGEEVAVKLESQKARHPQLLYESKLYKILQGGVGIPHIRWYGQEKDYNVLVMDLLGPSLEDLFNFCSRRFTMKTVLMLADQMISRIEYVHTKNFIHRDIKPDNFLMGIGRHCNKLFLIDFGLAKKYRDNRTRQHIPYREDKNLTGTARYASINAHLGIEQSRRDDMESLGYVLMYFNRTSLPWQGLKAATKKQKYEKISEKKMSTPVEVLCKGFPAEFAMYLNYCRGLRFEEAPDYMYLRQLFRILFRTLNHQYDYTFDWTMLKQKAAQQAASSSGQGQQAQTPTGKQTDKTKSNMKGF
T1 sequence (Q96SW2 whole entry): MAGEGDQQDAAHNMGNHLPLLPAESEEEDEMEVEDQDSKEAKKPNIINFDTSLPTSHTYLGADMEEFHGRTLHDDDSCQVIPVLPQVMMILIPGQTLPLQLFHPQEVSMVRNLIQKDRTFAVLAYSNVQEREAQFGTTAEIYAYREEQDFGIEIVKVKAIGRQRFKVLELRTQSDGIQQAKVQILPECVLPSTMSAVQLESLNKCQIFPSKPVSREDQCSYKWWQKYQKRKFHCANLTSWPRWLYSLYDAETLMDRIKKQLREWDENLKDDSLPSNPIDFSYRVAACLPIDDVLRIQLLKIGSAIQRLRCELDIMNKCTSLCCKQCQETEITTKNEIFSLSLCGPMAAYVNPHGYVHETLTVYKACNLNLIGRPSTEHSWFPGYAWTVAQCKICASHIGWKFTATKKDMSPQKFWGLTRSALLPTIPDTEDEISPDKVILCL
T1 sequence (Q16531 whole entry partner): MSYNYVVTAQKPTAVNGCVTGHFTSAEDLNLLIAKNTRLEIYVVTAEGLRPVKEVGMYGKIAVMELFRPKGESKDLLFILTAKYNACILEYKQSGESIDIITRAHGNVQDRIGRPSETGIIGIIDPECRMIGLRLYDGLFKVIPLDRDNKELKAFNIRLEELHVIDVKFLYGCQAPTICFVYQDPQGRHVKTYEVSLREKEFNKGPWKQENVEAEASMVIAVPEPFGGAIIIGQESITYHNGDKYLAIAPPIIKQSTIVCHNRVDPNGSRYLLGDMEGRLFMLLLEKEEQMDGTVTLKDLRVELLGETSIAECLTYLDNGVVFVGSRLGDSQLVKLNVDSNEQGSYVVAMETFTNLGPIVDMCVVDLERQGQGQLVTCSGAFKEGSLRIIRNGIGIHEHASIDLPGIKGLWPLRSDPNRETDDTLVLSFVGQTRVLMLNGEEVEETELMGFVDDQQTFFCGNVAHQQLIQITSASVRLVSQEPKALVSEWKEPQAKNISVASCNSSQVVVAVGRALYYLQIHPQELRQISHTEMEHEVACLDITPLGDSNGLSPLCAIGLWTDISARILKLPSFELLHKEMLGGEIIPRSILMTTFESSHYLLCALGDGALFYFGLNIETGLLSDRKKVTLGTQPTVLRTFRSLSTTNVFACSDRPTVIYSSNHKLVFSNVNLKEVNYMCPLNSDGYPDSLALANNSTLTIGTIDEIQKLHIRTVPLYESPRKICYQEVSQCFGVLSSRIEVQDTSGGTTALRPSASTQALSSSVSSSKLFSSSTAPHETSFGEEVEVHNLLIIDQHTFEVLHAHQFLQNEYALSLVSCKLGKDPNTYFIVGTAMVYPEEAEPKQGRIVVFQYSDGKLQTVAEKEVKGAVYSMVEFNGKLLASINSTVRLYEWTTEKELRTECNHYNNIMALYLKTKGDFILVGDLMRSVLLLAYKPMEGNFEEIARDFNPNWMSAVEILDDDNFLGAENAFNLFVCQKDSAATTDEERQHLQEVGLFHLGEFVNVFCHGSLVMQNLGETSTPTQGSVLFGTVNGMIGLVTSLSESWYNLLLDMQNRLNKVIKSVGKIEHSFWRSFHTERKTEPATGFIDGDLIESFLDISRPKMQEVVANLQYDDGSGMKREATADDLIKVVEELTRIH
Sequence of GSPT1 (P15170 whole entry): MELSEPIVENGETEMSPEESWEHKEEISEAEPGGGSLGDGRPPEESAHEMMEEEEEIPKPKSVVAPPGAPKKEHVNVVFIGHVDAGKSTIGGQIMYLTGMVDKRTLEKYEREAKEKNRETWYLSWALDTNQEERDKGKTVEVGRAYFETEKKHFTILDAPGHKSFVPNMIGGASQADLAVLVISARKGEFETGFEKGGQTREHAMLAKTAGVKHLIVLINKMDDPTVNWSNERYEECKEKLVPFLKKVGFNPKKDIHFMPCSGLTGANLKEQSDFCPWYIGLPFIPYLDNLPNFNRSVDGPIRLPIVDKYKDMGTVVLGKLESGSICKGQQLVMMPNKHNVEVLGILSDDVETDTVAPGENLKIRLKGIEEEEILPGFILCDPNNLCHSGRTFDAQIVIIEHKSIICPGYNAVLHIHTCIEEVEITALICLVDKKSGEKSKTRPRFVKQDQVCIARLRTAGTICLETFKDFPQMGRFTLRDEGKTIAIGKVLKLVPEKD
Sequence of GSPT1 (Q96SW2 whole entry): as the sequence (Q96SW2 whole entry) above
Sequence of GSPT1 (Q16531 whole entry partner): as the sequence (Q16531 whole entry partner) above

DC50 [1] [nM]	GSPT1 Ymin [1]	CK1α Ymin [2]	DC50 [2] [nM]	SMILES
≥ 25	F (F = >75-100% remaining)	D (D = >10- 25% remaining)	< 25	Cn1ncc(-c2ccc3c(c2)CN(C2CCC(=O)NC2=O)C3=O)c1-c1ccc(O)cc1 (centres unmarked) [Example 142]
≥ 25	F (F = >75-100% remaining)	D (D = >10- 25% remaining)	< 25	COc1ccc(-c2c(-c3ccc4c(c3)CN(C3CCC(=O)NC3=O)C4=O)cnn2C)c(C)c1 (centres unmarked) [Example 143]
≥ 25	E (E = >25-75% remaining)	D (D = >10- 25% remaining)	< 25	COc1ccc(-c2c(-c3ccc4c(c3)CN(C3CCC(=O)NC3=O)C4=O)cnn2C)cc1Cl (centres unmarked) [Example 146]
≥ 25	F (F = >75-100% remaining)	C (C = 0-10% remaining)	< 25	Cn1ncc(-c2ccc3c(c2)CN(C2CCC(=O)NC2=O)C3=O)c1-c1cccc(N)c1 (centres unmarked) [Example 147]
< 25	F (F = >75-100% remaining)	E (E = >25-75% remaining)	< 25	Cn1ncc(-c2ccc3c(c2)CN(C2CCC(=O)NC2=O)C3=O)c1-c1ccc(Cl)cc1Cl (centres unmarked) [Example 148]
< 25	F (F = >75-100% remaining)	D (D = >10- 25% remaining)	< 25	COc1ccc2cc(-c3c(-c4ccc5c(c4)CN(C4CCC(=O)NC4=O)C5=O)cnn3C)ccc2c1 (centres unmarked) [Example 149]
≥ 25	F (F = >75-100% remaining)	D (D = >10- 25% remaining)	< 25	Cn1ncc(-c2ccc3c(c2)CN(C2CCC(=O)NC2=O)C3=O)c1-c1ccc(-n2cccn2)cc1 (centres unmarked) [Example 150]
≥ 25	F (F = >75-100% remaining)	E (E = >25-75% remaining)	< 25	Cc1ccc(-c2c(-c3ccc4c(c3)CN(C3CCC(=O)NC3=O)C4=O)cnn2C)cc1F (centres unmarked) [Example 151]
≥ 25	F (F = >75-100% remaining)	E (E = >25-75% remaining)	≥ 25	Cn1ncc(-c2ccc3c(c2)CN(C2CCC(=O)NC2=O)C3=O)c1-c1ccccc1C#N (centres unmarked) [Example 152]
≥ 25	F (F = >75-100% remaining)	E (E = >25-75% remaining)	< 25	Cn1ncc(-c2ccc3c(c2)CN(C2CCC(=O)NC2=O)C3=O)c1-c1ccc2c(c1)OCC2 (centres unmarked) [Example 155]
≥ 25	F (F = >75-100% remaining)	D (D = >10- 25% remaining)	≥ 25	Cn1ncc(-c2ccc3c(c2)CN(C2CCC(=O)NC2=O)C3=O)c1-c1ccc(CO)cc1 (centres unmarked) [Example 156]
≥ 25	F (F = >75-100% remaining)	E (E = >25-75% remaining)	≥ 25	Cc1ccc(-c2c(-c3ccc4c(c3)CN(C3CCC(=O)NC3=O)C4=O)cnn2C)cc1CO (centres unmarked) [Example 157]
≥ 25	F (F = >75-100% remaining)	D (D = >10- 25% remaining)	< 25	Cn1ncc(-c2ccc3c(c2)CN(C2CCC(=O)NC2=O)C3=O)c1-c1ccc(N2CCCC2)cc1 (centres unmarked) [Example 159]
≥ 25	E (E = >25-75% remaining)	E (E = >25-75% remaining)	< 25	Cc1ccc(-c2c(-c3ccc4c(c3)CN(C3CCC(=O)NC3=O)C4=O)ncn2C)c(C)c1 (centres unmarked) [Example 166]
≥ 25	F (F = >75-100% remaining)	E (E = >25-75% remaining)	< 25	Cc1c(F)cccc1-c1c(-c2ccc3c(c2)CN(C2CCC(=O)NC2=O)C3=O)ncn1C (centres unmarked) [Example 169]
≥ 25	F (F = >75-100% remaining)	D (D = >10- 25% remaining)	< 25	Cc1ccc(F)c(-c2c(-c3ccc4c(c3)CN(C3CCC(=O)NC3=O)C4=O)ncn2C)c1 (centres unmarked) [Example 170]
< 25	F (F = >75-100% remaining)	D (D = >10- 25% remaining)	< 25	Cc1cccc(-c2c(-c3ccc4c(c3)CN(C3CCC(=O)NC3=O)C4=O)ncn2C)c1F (centres unmarked) [Example 171]

The remaining lines, values behind:

SMILES	DC50 [1] [nM]	GSPT1 Ymin [1]	CK1α Ymin [2]	DC50 [2] [nM]
Cn1ncc(-c2ccc3c(c2)CN(C2CCC(=O)NC2=O)C3=O)c1-c1ccc(-c2ccccc2)cc1 (centres unmarked) [Example 144]	≥ 25	F (F = >75-100% remaining)	E (E = >25-75% remaining)	< 25
Cn1ncc(-c2ccc3c(c2)CN(C2CCC(=O)NC2=O)C3=O)c1-c1ccccc1-c1ccccc1 (centres unmarked) [Example 145]	< 25	F (F = >75-100% remaining)	C (C = 0-10% remaining)	< 25
Cn1ncc(-c2ccc3c(c2)CN(C2CCC(=O)NC2=O)C3=O)c1-c1ccc(-c2ccncc2)cc1 (centres unmarked) [Example 153]	≥ 25	F (F = >75-100% remaining)	D (D = >10- 25% remaining)	< 25
CN1CCN(Cc2ccc(-c3c(-c4ccc5c(c4)CN(C4CCC(=O)NC4=O)C5=O)cnn3C)cc2)CC1 (centres unmarked) [Example 154]	≥ 25	F (F = >75-100% remaining)	E (E = >25-75% remaining)	≥ 25
Cn1ncc(-c2ccc3c(c2)CN(C2CCC(=O)NC2=O)C3=O)c1-c1cccc(CN2CCCC2)c1 (centres unmarked) [Example 158]	≥ 25	F (F = >75-100% remaining)	E (E = >25-75% remaining)	≥ 25
Cn1ncc(-c2ccc3c(c2)CN(C2CCC(=O)NC2=O)C3=O)c1-c1ccc(S(=O)(=O)NC2CCCCC2)cc1 (centres unmarked) [Example 160]	≥ 25	C (C = 0-10% remaining)	E (E = >25-75% remaining)	≥ 25
Cc1ccccc1-c1c(-c2ccc3c(c2)CN(C2CCC(=O)NC2=O)C3=O)ncn1C (centres unmarked) [Example 161]	≥ 25	F (F = >75-100% remaining)	D (D = >10- 25% remaining)	< 25
Cc1cccc(-c2c(-c3ccc4c(c3)CN(C3CCC(=O)NC3=O)C4=O)ncn2C)c1 (centres unmarked) [Example 162]	< 25	E (E = >25-75% remaining)	C (C = 0-10% remaining)	< 25
Cn1cnc(-c2ccc3c(c2)CN(C2CCC(=O)NC2=O)C3=O)c1-c1ccc(O)cc1 (centres unmarked) [Example 163]	≥ 25	E (E = >25-75% remaining)	C (C = 0-10% remaining)	< 25
Cn1cnc(-c2ccc3c(c2)CN(C2CCC(=O)NC2=O)C3=O)c1-c1ccccc1F (centres unmarked) [Example 164]	< 25	E (E = >25-75% remaining)	C (C = 0-10% remaining)	< 25
Cn1cnc(-c2ccc3c(c2)CN(C2CCC(=O)NC2=O)C3=O)c1-c1ccc(C#N)cc1 (centres unmarked) [Example 165]	≥ 25	F (F = >75-100% remaining)	D (D = >10- 25% remaining)	< 25
Cc1cccc(-c2c(-c3ccc4c(c3)CN(C3CCC(=O)NC3=O)C4=O)ncn2C)c1C (centres unmarked) [Example 167]	< 25	F (F = >75-100% remaining)	E (E = >25-75% remaining)	< 25
